Test results taken from PMC5215849 (Antiviral research, 2016).
In brackets after ≈: the same amount, converted by molar mass. Where two headings read alike, the source gives them in different places.

Experiments:
ZIKV Malaysian P 6-740 = assay: Virus yield reduction
ZIKV P 6-740 [1] = assay: Virus yield reduction; conditions: Zika virus
ZIKV (P 6-740) [2] = type: in vivo, AG129 mice
ZIKV (P 6-740) [3] = assay: Re-challenge of surviving BCX4430-treated AG129 mice with ZIKV; type: in vivo; conditions: BCX4430-treated mice (300 mg/kg/d) that survived initial ZIKV challenge
ZIKV PRVABC-59 [4] = assay: CPE reduction assay, ZIKV Puerto Rican PRVABC-59; type: cell-based; conditions: Zika virus
ZIKV MR-766 [5] = assay: Virus yield reduction; conditions: Zika virus
ZIKV MR-766 [6] = assay: CPE reduction assay, ZIKV Ugandan MR-766; type: cell-based; conditions: Zika virus
ZIKV (P 6-740) [7] = type: in vivo, AG129 mice; conditions: for Mean weight change from days 7 to 13: vehicle −3.1 ± 2.4 g, p<0.001
ZIKV P 6-740 [8] = assay: CPE reduction assay, ZIKV Malaysian P 6-740; type: cell-based; conditions: Zika virus
ZIKV PRVABC-59 [9] = assay: Virus yield reduction; conditions: Zika virus
ZIKV = assay: Virus yield reduction concentration-response; type: cell-based, Zika virus; conditions: single test
[10] = Huh-7, read-out: VYR assay EC90
[11] = Vero 76, read-out: VYR assay EC90
[12] = 300 mg/kg/d bid for 7 days beginning 3 dpi
[13] = Huh-7, read-out: CPE red. assay EC50
[14] = RD, read-out: CPE red. assay EC50
[15] = Vero 76, read-out: CPE red. assay EC50

Compound | selectivity ratio (ZIKV Malaysian P 6-740; African green monkey) | selectivity ratio (ZIKV Malaysian P 6-740; human) | EC50 (ZIKV PRVABC-59 [4]; [13]) [µg/mL] | EC50 (ZIKV PRVABC-59 [4]; [14]) [µg/mL] | EC50 (ZIKV PRVABC-59 [4]; [15]) [µg/mL] | EC50 (ZIKV MR-766 [6]; [13]) [µg/mL] | EC50 (ZIKV MR-766 [6]; [14]) [µg/mL] | EC50 (ZIKV MR-766 [6]; [15]) [µg/mL] | EC50 (ZIKV P 6-740 [8]; [13]) [µg/mL] | EC90 (ZIKV PRVABC-59 [9]; [10]) [µg/mL] | EC90 (ZIKV PRVABC-59 [9]; RD, read-out: VYR assay EC90) [µg/mL] | EC90 (ZIKV PRVABC-59 [9]; [11]) [µg/mL] | further results
Nc1ncnc2c([C@@H]3N[C@H](CO)[C@@H](O)[C@H]3O)c[nH]c12 [BCX4430] | 7.3 | 20.5 | 4.7 ± 0.6 (≈ 17.7 µM) | 4.7 ± 2.2 (≈ 17.7 µM) | 3.8 ± 2.5 (≈ 14.3 µM) | 5.7 ± 0.9 (≈ 21.5 µM) | 4.4 ± 1.3 (≈ 16.6 µM) | 11.7 ± 4.7 (≈ 44.1 µM) | 5.5 ± 0.1 (≈ 20.7 µM) | 6.7 ± 1.2 (≈ 25.3 µM) | 10 ± 2.2 (≈ 37.7 µM) | 18.2 ± 2.7 (≈ 68.6 µM) | EC90 (ZIKV P 6-740 [1]; [10]): 4.9 ± 0.9 µg/mL (≈ 18.5 µM); EC90 (ZIKV P 6-740 [1]; [11]): 13.8 ± 3.7 µg/mL (≈ 52 µM); Protection from weight loss between 7 and 13 dpi (ZIKV (P 6-740) [2]; 300 mg/kg/d beginning 1, 3 or 5 dpi, vs vehicle p<0.001): Significant protection from weight loss; Viral RNA levels in serum on 5 dpi (ZIKV (P 6-740) [2]; 300 mg/kg/d beginning 1 or 3 dpi): not significantly decreased; Median survival (ZIKV (P 6-740) [2]; 300 mg/kg/d bid for 7 days beginning 1 dpi): > 28 days; Median survival (ZIKV (P 6-740) [2]; [12]): 19.5 days; Survivors (ZIKV (P 6-740) [2]; [12]): only a single mouse survived; Median survival (ZIKV (P 6-740) [2]; 300 mg/kg/d bid for 7 days beginning 5 dpi): 18 days; Median survival (ZIKV (P 6-740) [2]; 300 mg/kg/d bid for 7 days beginning 7 dpi): 17 days; Neutralizing antibody titers in serum just prior to re-challenge (ZIKV (P 6-740) [3]): 4-5 log10 PRNT50; EC90 (ZIKV MR-766 [5]; [10]): 6.4 µg/mL (≈ 24.1 µM); EC90 (ZIKV MR-766 [5]; RD, read-out: VYR assay EC90): 5.4 ± 1.1 µg/mL (≈ 20.4 µM); EC90 (ZIKV MR-766 [5]; [11]): 8.7 µg/mL (≈ 32.8 µM); Mean weight change from days 7 to 13 (ZIKV (P 6-740) [7]; 150 mg/kg/d): -0.3 ± 0.8 g; Weight between 0 and 19 dpi (ZIKV (P 6-740) [7]; 300 mg/kg/d, similar to sham infected animals treated with the same dose): did not decline substantially; Mean weight change from days 7 to 13 (ZIKV (P 6-740) [7]; 300 mg/kg/d): +0.2 ± 0.5 g; Viral RNA level in pooled serum on day 5 (qRT-PCR) (ZIKV (P 6-740) [7]; either dose of BCX4430 (300 or 150 mg/kg/d)): significant reduction in viremia; EC50 (ZIKV P 6-740 [8]; [15]): 11.5 ± 4.4 µg/mL (≈ 43.4 µM)
NC(=O)c1ncn([C@@H]2O[C@H](CO)[C@@H](O)[C@H]2O)n1 [Ribavirin, reference compound] | 1.6 | 24.5 | 3.8 ± 1.6 (≈ 15.6 µM) | 10 ± 6 (≈ 40.9 µM) | 23 ± 16.8 (≈ 94.2 µM) | 8.9 ± 7.9 (≈ 36.4 µM) | 9.3 ± 5.2 (≈ 38.1 µM) | 85 ± 77.9 (≈ 348 µM) | 7.2 ± 2.8 (≈ 29.5 µM) | 10.4 ± 0.8 (≈ 42.6 µM) | 46.3 ± 8.6 (≈ 190 µM) | 281 ± 108 (≈ 1150 µM) | Activity in virus yield reduction assay (ZIKV; Vero76 cells (Figure 1A)): not active; Activity in virus yield reduction assay (ZIKV; human cell lines Huh-7 and RD (Figures 1B and C)): confirmed the antiviral activity; Viral RNA level in pooled serum on day 5 (qRT-PCR) (ZIKV (P 6-740) [7]; ribavirin i.p. bid 75 or 50 mg/kg/d): did not improve viral RNA levels; Outcome (survival) (ZIKV (P 6-740) [7]; ribavirin i.p. bid 75 or 50 mg/kg/d for 8 days): did not improve outcomes; Protection against weight loss (ZIKV (P 6-740) [7]; ribavirin i.p. bid 75 or 50 mg/kg/d, days 7 to 13): did not protect against weight loss
